This note sets out measurements from PMC7997572 (2020).

Common to all, as to assay: CD melting
In assay [1] the test system is c-Kit1 (DNA, G4) AGGGAGGGCGCTGGGAGGAGGG
Particulars: K+ (20 mM potassium phosphate, 5 mM KCl; Table S1 note: 5 mM phosphate, 20 mM KCl); pH 7.0; 150 μM compound (10 equiv), 15 μM DNA.

Assay [2] concerns c-Kit2 (DNA, G4) CGGGCGGGCGCTAGGGAGGGT
Particulars: K+ (20 mM potassium phosphate, 5 mM KCl; Table S1 note: 5 mM phosphate, 20 mM KCl); pH 7.0; 150 μM compound (10 equiv), 15 μM DNA.

Assay [3] has as its system c-Myc (DNA, G4) TGAGGGTGGGTAGGGTGGGTAA
Particulars: K+ (20 mM potassium phosphate, 5 mM KCl; Table S1 note: 5 mM phosphate, 20 mM KCl), pH 7.0, 150 μM compound (10 equiv), 15 μM DNA.

Assay [4] deals with Tel23-h (DNA, G4) TTAGGGTTAGGGTTAGGGTTAGGGTT
To be noted: K+ (20 mM potassium phosphate, 5 mM KCl; Table S1 note: 5 mM phosphate, 20 mM KCl); pH 7.0; 150 μM compound (10 equiv), 15 μM DNA.

Assay [5] relates to Tel23-p (DNA, G4) TTAGGGTTAGGGTTAGGGTTAGGGTT
To be noted: K+ (20 mM potassium phosphate, 5 mM KCl; Table S1 note: 5 mM phosphate, 20 mM KCl); pH 7.0; 150 μM compound (10 equiv), 15 μM DNA.

The subject of assay [6] is Hairpin (DNA, hairpin) CGAATTCGTTTTCGAATTCG
To be noted: K+ (20 mM potassium phosphate, 5 mM KCl; Table S1 note: 5 mM phosphate, 20 mM KCl); pH 7.0; 300 μM compound (10 equiv), 30 μM DNA.

With `O=C1Nc2c(ccc3ccccc23)/C1=C\c1cccc(/C=N/NC2=NCCN2)c1`, the ΔTm in assay [1] is 14.5 ± 1.0 °C; in assay [2] it was 26.0 ± 1.0 °C; in assay [3] (exact value not determinable), over 22 °C.
Turning to `Cc1cc2c(cc1O)/C(=C\c1cccc(/C=N/NC(=N)N)c1)C(=O)N2`, the ΔTm in assay [4] stood at 10.0 ± 1.0 °C.
For `O=C1Nc2ccc(Cl)cc2/C1=C\c1cccc(/C=N/NC2=NCCN2)c1`, the thermal shift (ΔTm) in assay [3] turned out to be 14.1 ± 1.0 °C.
`CC(C)(C)c1cc(/C=N/NC(=N)N)c(O)c(/C=C2/C(=O)Nc3c2ccc2ccccc32)c1`: the thermal shift (ΔTm) was 1.5 ± 1.0 °C in assay [1], 1.0 ± 1.0 °C in assay [4] and 27.0 ± 1.0 °C in assay [5].
Regarding `NC(N)=N/N=C/c1c(Cl)n(C/C=C/c2ccccc2)c2ccccc12`, in assay [6], the ΔTm is 0.0 ± 1.0 °C.
Take `COc1cc2c(/C=N/NC(=N)N)c(Cl)n(C)c2cc1C`: the ΔTm in assay [6] was 7.0 ± 1.0 °C.

By ΔTm is commonly meant the shift of the melting midpoint relative to a reference.
